Measured values: patent US4374284A, “Antiulcer, antiinflammatory, and antiallergic agent comprising as the main ingredient olean-12-ene-3β, 30-diol which is devoid of side effects of glycyrrhetinic acid and a new process for preparation of olean-12-ene-3β, 30-diol” (Minophagen Pharmaceutical Company, priority 1980, dated 1983)
Entries after “also recorded” stand apart in the source; their conditions may differ.

Columns and labels:
[1] = system: PCA reaction (type I allergy); assay: PCA test (type I allergy); format: in vivo, male Wister rats
Description: (a) PCA--Test (type I allergy)
Male Wister rats weighing […] were shaved at the abdomen. After 24 hours, 0.05 ml of serum diluted with saline (Blood samples were diluted to 1/32 and 1/64; The blood samples were collected from rats 3 weeks after administration of pertussis vaccine and egg albumin.) was injected intradermally at the abdomen. After 48 hours, compounds to be tested were administered intraperitoneally. Two hours thereafter, 0.5 ml./100 g of a solution of antigen and pigment (a solution of 0.4% egg albumin and 0.5% Pontamine sky blue) was administered. After 45 minutes, the rats were decapitated and bled, and the diameter of the pigment-leaking site under the skin was measured to obtain the area.

acute toxicity test = format: in vivo, male mice (ddY); conditions: mouse, in vivo
Description: (§1) To male mice (ddY) weighing 24 g-26 g, 10 mice in one group, compounds to be tested (suspended in Tween 80) in various doses of the ratio (1, 2) were administered (orally and intraperitoneally), and LD50 was determined by the Litchfield-Wilcoxon method.

mice = assay: acute toxicity test; format: in vivo, male mice (ddY); conditions: oral and intraperitoneal
Description: as §1

aspirin-induced ulcer [2] = assay: rat experiment on aspirin-induced ulcer, pylorus ligated (experiment a); format: in vivo, male Wister rats
Description: (b) Rat experiment on aspirin-induced ulcer
(a) Experimental procedures:
Male Wister rats weighing about 220 g were made to fast for 24 hours. Water was given freely. The rats were laparotomized under anesthesia with ether. The stomach was drawn out and ligated at the pylorus. Immediately thereafter, 1% CMC suspension of aspirin was administered orally in a dose of 100 mg/kg/5 ml. Aqueous suspensions of compounds to be tested were prepared in the same manner as in the experiment (a) and administered intraduodenally at the same time. The wound was closed and the rats were set free. After 7 hours, the stomach was excised and ulcer was measured in the same manner as in the experiment (a).

[3] = system: writhing induced by acetic acid; assay: effect on writhing induced by acetic acid (analgesic action); format: in vivo, male ddY mice; conditions: for number of writhing: counted for 10 minutes, control 24.9 ± 1.6, ** p < 0.01
Description: (b) Effect on writhing induced by acetic acid (analgesic action)
The present compound olean-12-ene-3β, 30-diol (I) was administered orally to male ddY mice weighing 25-27 g. After 30 minutes, saline containing 0.7% acetic acid was administered intraperitoneally. The number of writhings of the mice was counted for 10 minutes from, 10 min. of the administration. Aspirin was used as the reference.

[4] = biological target: T1, Δ^4 -5α-reductase for aldosterone in rat liver (Rattus norvegicus, UniProt P24008); assay: inhibitory action on Δ^4-5α-reductase for aldosterone; format: biochemical
T1 construct: The pellet was appropriately diluted with a solution of 0.25 M sucrose-1 mM EDTA to use as a 5α-reductase solution; from tissue; host or cells: rat liver, 105,000 g pellet
T1 sequence (P24008 1-259): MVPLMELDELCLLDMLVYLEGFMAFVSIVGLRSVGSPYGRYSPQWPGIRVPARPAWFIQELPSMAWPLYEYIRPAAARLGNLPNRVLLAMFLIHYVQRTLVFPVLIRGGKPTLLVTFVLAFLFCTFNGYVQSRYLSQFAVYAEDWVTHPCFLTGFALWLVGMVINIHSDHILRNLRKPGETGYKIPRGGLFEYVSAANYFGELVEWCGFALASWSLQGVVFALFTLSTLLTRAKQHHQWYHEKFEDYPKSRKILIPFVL
Description: In vitro experimental results regarding effects of glycyrrhetinic acid (II) and its modified compounds (III), (IV), and (I) on Δ^4 -5α and 5β-reductase for aldosterone in rat liver will be shown below.
Assay for activity of Δ^4 -5α and 5β-reductase
(1) Preparation of enzyme solutions
Rat livers were perfused with saline and excised to prepare a 25% or 50% homogenate with a solution of 0.25 M sucrose and 1 mM EDTA. The homogenate was spun at 10,000 g for 20 minutes to separate supernatant, which was centrifuged again at 105,000 g to obtain Δ^4 -5β-reductase as the supernatant. The pellet was appropriately diluted with a solution of 0.25 M sucrose-1 mM EDTA to use as a 5α-reductase solution.
(2) Conditions for incubation and assay
1 Aldosterone . . . 0.173 μM/0.05 ml ethanol solution
2 Glycyrrhetinic acid or its modified compounds . . . 0.173 μM/0.05 ml ethanol solution Control . . . 0.05 ml ethanol solution
5α-reductase solution 0.1 ml
5β-reductase solution 0.1 ml or 0.2 ml
5 Phosphate buffer (0.1 M, pH 7.2) 1 ml
The components 1 , 2 , 3 , 4 , 5 , and 6 mentioned above were mixed to bring the total volume up to 2.5 ml. The mixture was incubated at 37° C. for 20 minutes. Before the incubation, however, 1 ml aliquot was removed from 2.5 ml of the mixture mentioned above and extracted with 5 ml of methylene dichloride. After the incubation, the remaining 1.5 ml was extracted with 5 ml of methylene dichloride. The optical density of the two methylene dichloride solutions prepared before and after the incubation was measured by a spectrophotometer (Hitachi) at 240 mμ. Inhibition % of Δ^4 -5α and 5β-reductase activity was calculated from the difference in the optical density.

aspirin-induced ulcer [5] = assay: rat experiment on aspirin-induced ulcer, oral (experiment b); format: in vivo, male Wister rats
Description: (b) Experimental procedures:
Male Wister rats weighing 120-140 g were made to fast for 24 hours, and compounds to be tested were administered orally. After 5 hours, the rats were killed by a blow. The stomach was excised and observed for the presence of ulcer.
The size of ulcer was measured by ulcer index (ulcer length×width mm^2).

CC1(C)[C@@H](O)CC[C@]2(C)[C@H]3CC=C4[C@@H]5C[C@@](C)(CO)CC[C@]5(C)CC[C@@]4(C)[C@]3(C)CC[C@@H]12 [I, olean-12-ene-3β, 30-diol]
area ([1]; serum 1/32, 100 mg/kg intraperitoneally, control 35.2 ± 5.3): 22.3 ± 9.1 mm^2
area ([1]; serum 1/64, 100 mg/kg intraperitoneally, control 16.4 ± 2.8): 6.8 ± 4.6 mm^2
area ([1]; serum 1/64, 200 mg/kg intraperitoneally, control 16.4 ± 2.8): 6.3 ± 4.8 mm^2
PCA activity compared with (II) (in words) ([1]; serum diluted to 1/64): a little stronger than that of (II)
LD50 (acute toxicity test; ip, intraperitoneal administration): > 4000 mg/kg
LD50 (acute toxicity test; oral administration): > 5000 mg/kg
acute toxicity (in words) (mice): very low toxicity
ulcer index (aspirin-induced ulcer [2]; 320 mg/kg (head p.o.; text intraduodenally), aspirin 100 mg/kg, after 7 hours, control 14.1 ± 3.14): 6.2 ± 2.37
inhibitory effect on aspirin-induced ulcer, experiment (a) (in words) (aspirin-induced ulcer [2]; rat, in vivo): showed an inhibitory effect
number of writhing ([3]; 100 mg/kg p.o.): 15.5 ± 2.8
number of writhing ([3]; 200 mg/kg p.o.): 11.1 ± 1.6
number of writhing ([3]; 400 mg/kg p.o.): 8.0 ± 1.7
effect on writhing (in words) ([3]; increasing doses): significantly decrease the number of writhing; also recorded: a little stronger than that of (II), but not so perfect as aspirin
inhibition at 0.173 µM ([4]; pH 7.2, read-out: 5α-reductase (inhibition %)): -7.1%
effect upon Δ^4 -5α-5β-reductase (in words), 5α ([4]; summary in words, liver reductase): no inhibitory activity
ulcer index (ulcer length×width) (aspirin-induced ulcer [5]; 200 mg/kg p.o., after 5 hours, control 0): 0 mm^2
effect on ulcer, experiment (b) (in words) (aspirin-induced ulcer [5]; rat, in vivo): did not produce ulcer and inhibited the development of ulcer induced by aspirin
